Measurements reported in article PMC5355811 (Nature Communications, 2017).
Like-named read-outs stand apart in the source and are kept apart here.

Assays:
[1] = test system: Ba/F3 cells expressing EGFR-del19; assay: CellTiter-Glo cell viability assay, Ba/F3 EGFR-del19; assay type: cell-based; details: Mus musculus
Method: (§1) Three-day cell viability assays were carried out by plating 2,000, 1,500 and 2,000 cells per well of Ba/F3, PC9 or MGH121, respectively, into black transparent-bottom 96-well plates. On the same day for Ba/F3 cells and the following day for PC9 and MGH121 cells, the cells were treated with each TKI across a 10-dose range from 0.3 nmol l^−1 to 10 μmol l^−1. After 72 h of drug treatment, cell viability was measured using the CellTiter-Glo assay (Promega).

[2] = test system: Ba/F3 cells of EGFR-del19; assay: Drug sensitivity screening at 100 nM, Ba/F3 EGFR-del19; assay type: cell-based; details: for viability at 0.1 µM: Mus musculus, BaF3, 72 h, read-out: Relative cell viability (ratio to DMSO control), del19; for Relative cell viability (% of DMSO control) in del19 Ba/F3 cells: 100 nM
Method: (§2) After the incubation, cell viability was measured using CellTiter-Glo assay. The relative cell viability was calculated as a ratio of each value to that of the DMSO control.

[3] = test system: Ba/F3 cells of EGFR-T790M/del19; assay: Drug sensitivity screening at 100 nM, Ba/F3 EGFR-T790M/del19; assay type: cell-based; details: for viability at 0.1 µM: Mus musculus, BaF3, 72 h, read-out: Relative cell viability (ratio to DMSO control), del19/T790M; for Relative cell viability (% of DMSO control): 100 nM
Method: as §2

[4] = test system: Ba/F3 cells of EGFR-C797S/T790M/del19; assay: Drug sensitivity screening at 100 nM, Ba/F3 EGFR-C797S/T790M/del19; assay type: cell-based; details: Mus musculus; for viability at 0.1 µM: BaF3, 72 h, 100 nM inhibitor, 72 h, DMSO = 100, mean of three independent experiments (Fig. 1a data)
Method: as §2

[5] = test system: phosphorylation of EGFR in Ba/F3 cells expressing EGFR-C797S/T790M/del19; assay: Western blotting of EGFR signalling, Ba/F3 triple-del19; assay type: cell-based; details: 6 h
Method: (§3) Tumour tissues or cells grown under the specified conditions were washed with cold PBS before addition of the SDS lysis buffer (100 mM Tris, 1% SDS, 10% glycerol). Lysates were transferred to microtubes, boiled for 5 min at 100 °C and then vortexed. Protein quantification was performed using the BCA Protein Assay Reagent (Pierce) according to the manufacturer's protocol. Western blot analyses were conducted after separation by SDS-PAGE and transferred to polyvinylidene difluoride membranes.

PC9 parent cells (del19) = assay: CellTiter-Glo cell viability assay, PC9 parent; assay type: cell-based; details: 72 h, read-out: IC50, PC9 parent
Method: as §1

[6] = test system: PC9 T790M cells (T790M/del19); assay: CellTiter-Glo cell viability assay, PC9 T790M; assay type: cell-based; details: 72 h, read-out: IC50, PC9 T790M
Method: as §1

[7] = test system: PC9 triple-mutant cells (C797S/T790M/del19); assay: CellTiter-Glo cell viability assay, PC9 triple mutant; assay type: cell-based; details: 72 h, read-out: IC50, PC9 triple
Method: as §1

[8] = test system: MGH121 parental cells (T790M/del19); assay: cells; assay type: cell-based; details: Homo sapiens, MGH121; Table 1e; 72 h; read-out: IC50, MGH121-pt
Method: as §1

[9] = test system: MGH121-res2 cells (C797S/T790M/del19); assay: cells; assay type: cell-based; details: Homo sapiens, MGH121; Table 1e; 72 h; read-out: IC50, MGH121-res2
Method: as §1

[10] = test system: EGFR phosphorylation in PC9 triple-mutant cells; assay: Western blotting of EGFR signalling, PC9 triple mutant; assay type: cell-based
Method: as §3

[11] = test system: PC9-T790M (T790M/del19) xenograft; assay: PC9-T790M xenograft; assay type: in vivo, Balb-c nu/nu mice; details: osimertinib 50 mg kg^−1, brigatinib 75 mg kg^−1
Method: (§4) Tumour growth was monitored twice weekly by bilateral caliper measurement, and tumour volume was calculated as 0.5 × length × width × width (mm^3). […] The mice whose implanted tumour size was ranked in the top 5% and bottom 5% were excluded from randomization to minimize the variation of tumour sizes. The mice were treated once daily by oral gavage for the indicated period. Relative tumour volume was calculated by dividing by the tumour volume on day 0. The body weights of the mice were measured twice weekly. Implanted tumours were resected from the mice on day 15 of drug treatment and were fixed with formalin. The mice were euthanized when the tumour size exceeded 700 mm^3 within several days. The investigators performing tumour measurements were not blinded to treatment groups. The sample size (minimum n=6 per treatment group) was selected to ensure satisfactory inter-animal reproducibility. The Mann–Whitney U test was used for the statistical analysis of the mice experiments.

[12] = test system: PC9-triple mutant (C797S/T790M/del19) xenograft; details: osimertinib 50 mg kg^−1, brigatinib 75 mg kg^−1 once daily oral; cetuximab 1 mg per mouse three times a week; panitumumab 0.5 mg per mouse two times a week
Method: as §4

confirmed EGFR T790M = test system: confirmed EGFR T790M; set-up: method as in PMID 25923549; details: 127 patients with confirmed EGFR T790M, phase 1/2 trial; cited from earlier work
[13] = test system: Ba/F3 cells expressing EGFR-T790M/del19; assay: CellTiter-Glo cell viability assay, Ba/F3 EGFR-T790M/del19; assay type: cell-based; details: Mus musculus, BaF3, 72 h
Method: as §1

[14] = test system: Ba/F3 cells expressing EGFR-C797S/T790M/del19; assay: CellTiter-Glo cell viability assay, Ba/F3 EGFR-C797S/T790M/del19; assay type: cell-based; details: for IC50: Mus musculus, BaF3, 72 h, 72 h
Method: as §1

[15] = test system: Ba/F3 cells expressing EGFR-L858R; assay: CellTiter-Glo cell viability assay, Ba/F3 EGFR-L858R; assay type: cell-based; details: Mus musculus, BaF3, 72 h
Method: as §1

[16] = test system: Ba/F3 cells expressing EGFR-T790M/L858R; assay: CellTiter-Glo cell viability assay, Ba/F3 EGFR-T790M/L858R; assay type: cell-based; details: Mus musculus, BaF3, 72 h
Method: as §1

[17] = test system: Ba/F3 cells expressing EGFR-C797S/T790M/L858R; assay: CellTiter-Glo cell viability assay, Ba/F3 EGFR-C797S/T790M/L858R; assay type: cell-based; details: Mus musculus, BaF3, 72 h
Method: as §1

[18] = BaF3, Fig. 3c, 72 h, read-out: IC50, Ba/F3 Del19
[19] = Fig. 3c, read-out: IC50, Ba/F3 T790M/del19
[20] = Supplementary Fig. 8e, read-out: IC50, Ba/F3 L858R
[21] = Supplementary Fig. 8e, read-out: IC50, Ba/F3 T790M/L858R
[22] = 100 nM inhibitor, 72 h, DMSO = 100, mean of three independent experiments (Fig. 1a data)

Compound | IC50 [1, 18] [nM] | IC50 [13, 19] [nM] | IC50 ([14]; Fig. 3b,c) [nM] | IC50 [15, 20] [nM] | IC50 [16, 21] [nM] | IC50 ([17]; Supplementary Fig. 8e) [nM] | Relative cell viability (% of DMSO control) in del19 Ba/F3 cells ([2]; 72 h, DMSO = 100, experiment 1) | Relative cell viability (% of DMSO control) in del19 Ba/F3 cells ([2]; 72 h, DMSO = 100, experiment 2) | Relative cell viability (% of DMSO control) in del19 Ba/F3 cells ([2]; 72 h, DMSO = 100, experiment 3) | viability at 0.1 µM [2, 22] [%] | Relative cell viability (% of DMSO control) ([3]; 72 h, DMSO = 100, experiment 1) | Relative cell viability (% of DMSO control) ([3]; 72 h, DMSO = 100, experiment 2) | Relative cell viability (% of DMSO control) ([3]; 72 h, DMSO = 100, experiment 3) | viability at 0.1 µM [3, 22] [%] | viability at 0.1 µM [4] [%] | other results
Cc1ccc(C(=O)Nc2ccc(CN3CCN(C)CC3)c(C(F)(F)F)c2)cc1C#Cc1cnc2cccnn12 [Ponatinib, ponatinib] | – | – | – | – | – | – | – | – | – | – | – | – | – | – | – | IC50 ([1]; BaF3, 72 h, read-out: IC50, Ba/F3 del19): 126 nM; viability at 0.1 µM [2]: 40.6%; viability at 0.1 µM [3]: 53.5%; inhibition at 0.1 µM ([4]; BaF3, read-out: growth inhibition against EGFR-triple-del19): ~50%; phosphorylation of EGFR and downstream signalling, Ba/F3 triple-del19 [5]: no inhibitory activity
C=CC(=O)Nc1cc(Nc2nccc(-c3cn(C)c4ccccc34)n2)c(OC)cc1N(C)CCN(C)C [Osimertinib, osimertinib] | – | – | – | – | – | – | – | – | – | – | – | – | – | – | – | IC50 (PC9 parent cells (del19); Table 1c, EGFR–TKIs): 7.46 nM; IC50 ([6]; Table 1c, EGFR–TKIs): 11.3 nM; IC50 ([7]; Table 1c, EGFR–TKIs): 3460 nM; IC50 [8]: 2.58 nM; IC50 [9]: 7160 nM; viability at 0.1 µM [2]: 1.58%; viability at 0.1 µM [3]: 7.61%; phosphorylation of EGFR and downstream signalling, Ba/F3 triple-del19 [5]: lack of inhibition of EGFR phosphorylation; EGFR phosphorylation and downstream signalling, PC9 triple-mutant cells [10]: No reduction of the signal pathway; tumour growth, T790M/del19-expressing PC9 xenograft [11]: successfully suppressed the growth; tumour growth, PC9 triple-mutant xenograft [12]: without any superiority to control group; median progression-free survival (confirmed EGFR T790M): 9.6 months; response rate (confirmed EGFR T790M): 61%
COc1cc(N2CCC(N(C)C)CC2)ccc1Nc1ncc(Cl)c(Nc2ccccc2P(C)(C)=O)n1 [AP26113-analog] | 36.9 | 139 | < 100 | 92.1 | 36 | 69.2 | – | – | – | – | – | – | – | – | – | change of IC50 by combination with cetuximab, triple-del19 Ba/F3 cells ([14]; with or without cetuximab 10 μg ml^−1, 72 h): approximately three-fold decrease of IC50; IC50 (PC9 parent cells (del19); Table 1d, ALK–TKIs): 46.2 nM; IC50 ([6]; Table 1d, ALK–TKIs): 89.3 nM; IC50 ([7]; Table 1d, ALK–TKIs): 195 nM
COc1cc(N2CCC(N3CCN(C)CC3)CC2)ccc1Nc1ncnc(Nc2ccccc2S(=O)(=O)C(C)C)n1 [ASP3026] | 450 | 2160 | 1510 | 948 | 1690 | 2150 | 92.7195 | 100.941 | 101.38 | 98.3 | 93.2109 | 112.991 | 110.516 | 106 | 126 | –
Cc1cc(C(=O)Nc2nc3cccc(Cl)c3n2[C@@H]2CCCCN(C(=O)/C=C/CN(C)C)C2)ccn1 [EGF-816] | – | – | – | – | – | – | – | – | – | – | – | – | – | – | – | IC50 ([1]; BaF3, Table 1a, 72 h, read-out: IC50, Ba/F3-EGFR-Del19): 2.9 nM; IC50 ([13]; Table 1a, read-out: IC50, Ba/F3-EGFR-T790M/del19): 18.5 nM; IC50 ([14]; Table 1a, read-out: IC50, Ba/F3-EGFR-C797S/T790M/del19): 1410 nM; IC50 ([15]; Table 1b, read-out: IC50, Ba/F3-EGFR-L858R): 7.7 nM; IC50 ([16]; Table 1b, read-out: IC50, Ba/F3-EGFR-T790M/L858R): 15.5 nM; IC50 ([17]; Table 1b, read-out: IC50, Ba/F3-EGFR-C797S/T790M/L858R): 2280 nM
COc1cc(N2CCC(N)CC2)ccc1Nc1ncc(Cl)c(-c2c[nH]c3ccccc23)n1 [AZD3463] | 90 | 175 | 132 | 287 | 184 | 168 | 35.8012 | 31.981 | 37.0414 | 34.9 | 78.5876 | 91.5008 | 89.0461 | 86.4 | 89.3 | IC50 (PC9 parent cells (del19); Table 1d, ALK–TKIs): 253 nM; IC50 ([6]; Table 1d, ALK–TKIs): 378 nM; IC50 ([7]; Table 1d, ALK–TKIs): 622 nM; EGFR phosphorylation and downstream signalling, PC9 triple-mutant cells [10]: mild activity
CS(=O)(=O)N1CCN(Cc2cc3nc(-c4cccc5[nH]ncc45)nc(N4CCOCC4)c3s2)CC1 [GDC0941] | – | – | – | – | – | – | 34.6965 | 39.6485 | 45.9129 | 40.1 | 45.3105 | 67.5344 | 51.7458 | 54.9 | 66.1 | –
C[C@H]1Oc2cc(cnc2N)-c2c(nn(C)c2C#N)CN(C)C(=O)c2ccc(F)cc21 [Lorlatinib, lorlatinib] | – | – | – | – | – | – | 99.5381 | 109.489 | 108.837 | 106 | 93.1744 | 112.187 | 104.505 | 103 | 126 | –
CC(=O)O[C@H]1C(=O)[C@@]2(C)[C@H]([C@H](OC(=O)c3ccccc3)[C@]3(O)C[C@H](OC(=O)[C@H](O)[C@@H](NC(=O)c4ccccc4)c4ccccc4)C(C)=C1C3(C)C)[C@]1(OC(C)=O)CO[C@@H]1C[C@@H]2O [paclitaxel] | – | – | – | – | – | – | 51.8383 | 52.2569 | 51.6533 | 51.9 | 72.6289 | 87.6485 | 88.6746 | 83 | 95.1 | –
Cc1cc(Nc2ncc(Cl)c(Nc3ccccc3S(=O)(=O)C(C)C)n2)c(OC(C)C)cc1C1CCNCC1 [Ceritinib, ceritinib] | 524 | – | 780 | 1160 | 685 | – | – | – | – | 96.5 | – | – | – | – | 135 | –
